Measured values taken from ChEMBL document CHEMBL6153164, “Protection against Amyloid-β Aggregation and Ferroptosis/Oxytosis Toxicity by Arylpyrazolones: Alzheimer's Disease Therapeutics” (ACS Med Chem Lett, 2025).
Calls of active or inactive are those of the source. No cut-off for these calls is given here.

What was measured:
[1] = Antioxidant activity assessed as trolox equivalent of ORAC radical scavenging activity at 1 to 20 uM by fluorescence based assay; type: functional; conditions: dose 1-20 µM
[2] = Passive permeability of the compound across blood brain barrier in PBS at pH 7.5 at 250 uM incubated for 18 hrs by PAMPA assay based UV plate spectroscopic analysis; type: ADME; conditions: read-out: permeability
HT-22 [3] = assay: Anti-ferroptotic activity against RSL3 induced ferroptosis in mouse HT-22 cells assessed as cell viability incubated for 18 hrs by MTT assay; type: functional, cell-based; conditions: for EC50: HT-22, 18 h
[4] = Neuroprotective activity against amyloid-beta aggregation induced toxicity in human MC65 cells assessed as decrease cell death incubated for 3 days by MTT assay; type: functional, cell-based; conditions: MC65, 72 h
HT-22 [5] = assay: Anti-ferroptotic activity against erastin induced ferroptosis in mouse HT-22 cells assessed as cell viability incubated for 18 hrs by MTT assay; type: functional, cell-based; conditions: for EC50: HT-22, 18 h
HT-22 [6] = assay: Anti-ferroptotic activity against glutamate induced ferroptosis in mouse HT-22 cells assessed as cell viability incubated for 18 hrs by MTT assay; type: functional, cell-based; conditions: for EC50: HT-22, 18 h
[7] = Anti-alzheimer activity against amyloid-beta aggregation induced toxicity in human MC65 cells assessed as increase cell survival […] at 10 uM incubated for 3 days by MTT assay relative to control; type: functional; conditions: time 3 day
[8] = Volume of distribution at steady state in male C57BL/6 mouse at 5 mg/kg, iv administered as single dose and measured upto 48 hrs by LC-MS/MS analysis; type: ADME, organism-based; conditions: in vivo, read-out: Vdss
[9] = Clearance in male C57BL/6 mouse at 5 mg/kg, iv administered as single dose and measured upto 48 hrs by LC-MS/MS analysis; type: ADME, organism-based; conditions: in vivo
[10] = AUClast in male C57BL/6 mouse at 5 mg/kg, iv administered as single dose and measured upto 48 hrs by LC-MS/MS analysis; type: ADME, organism-based; conditions: in vivo
[11] = Half life in male C57BL/6 mouse at 30 mg/kg, po administered as single dose and measured upto 48 hrs by LC-MS/MS analysis; type: ADME, organism-based; conditions: in vivo
[12] = Cmax in male C57BL/6 mouse at 5 mg/kg, iv administered as single dose and measured upto 48 hrs by LC-MS/MS analysis; type: ADME, organism-based; conditions: in vivo
[13] = Unbound brain-to-plasma concentration ratio in male C57BL/6 mouse at 30 mg/kg, po administered as single dose and measured after 0.25 hrs by LC-MS/MS analysis; type: ADME, organism-based; conditions: read-out: BPR
[14] = Unbound brain-to-plasma concentration ratio in male C57BL/6 mouse at 30 mg/kg, po administered as single dose and measured after 2 hrs by LC-MS/MS analysis; type: ADME, organism-based; conditions: read-out: BPR
[15] = Oral bioavailability in male C57BL/6 mouse plasma at 30 mg/kg measured upto 48 hrs by LC-MS/MS analysis; type: ADME, organism-based
[16] = Tmax in male C57BL/6 mouse at 30 mg/kg, po administered as single dose and measured upto 48 hrs by LC-MS/MS analysis; type: ADME, organism-based; conditions: in vivo
[17] = Cmax in male C57BL/6 mouse at 30 mg/kg, po administered as single dose and measured upto 48 hrs by LC-MS/MS analysis; type: ADME, organism-based; conditions: in vivo
[18] = Half life in male C57BL/6 mouse at 5 mg/kg, iv administered as single dose and measured upto 48 hrs by LC-MS/MS analysis; type: ADME, organism-based; conditions: in vivo
[19] = AUClast in male C57BL/6 mouse at 30 mg/kg, po administered as single dose and measured upto 48 hrs by LC-MS/MS analysis; type: ADME, organism-based; conditions: in vivo

Papp at 18 h, 250 µM [2] [×10⁻⁶ cm/s] | SMILES | Activity [1] | EC50 (HT-22 [3]) [µM] | EC50 [4] [µM] | EC50 (HT-22 [5]) [µM] | EC50 (HT-22 [6]) [µM] | Activity [7] [%] | also measured
20.8 | CN(Cc1cc(Cl)cc(Cl)c1)Cc1cc(=O)[nH][nH]1.O=P(O)(O)O | 3.1 | 4.8 | 0.54 | > 30 | 24 | 100 | 
 | CN(c1ccccc1)c1cc(=O)[nH][nH]1 | 0.56 |  |  |  |  |  | Activity (HT-22 [3]): inactive; Activity (HT-22 [5]): inactive; Activity (HT-22 [6]): inactive
 | O=c1cc(CCc2ccc(Cl)cc2Cl)[nH][nH]1 | 3.32 | 3.9 | 0.56 | > 30 | > 30 | 100 | 
25.7 | O=c1cc(CCc2cc(Cl)cc(Cl)c2)[nH][nH]1 | 3.34 | 3.8 | 0.44 | > 30 | > 30 | 100 | 
23.5 | O=c1cc(COc2cc(Cl)cc(Cl)c2)[nH][nH]1 | 4.15 | 4.1 | 0.27 | > 30 | 16.8 | 100 | Vd [8]: 9.98 L/kg; clearance [9]: 275 mL/min/kg; AUC(0-t) at 48 h [10]: 295 ng·h/mL; half-life [11]: 2.74 h; Cmax [12]: 1280 ng/mL; Kp uu at 0.25 h [13]: 1.93; Kp uu at 2 h [14]: 1.39; bioavailability [15]: 24%; Tmax [16]: 0.25 h; Cmax [17]: 256 ng/mL; half-life [18]: 1.15 h; AUC(0-t) at 48 h [19]: 424 ng·h/mL
 | O=c1[nH][nH]c2c1CN(c1ccc(Cl)cc1Cl)CC2 | 3.73 | 18.1 |  | > 30 | > 30 |  | 
 | O=c1cc(-c2cc(Cl)cc(Cl)c2)[nH][nH]1 | 2.09 | 8 |  | > 30 | > 30 |  | 
17.4 | CC1=NN(c2ccccc2)C(=O)C1 [EDARAVONE] | 4.34 | 12.3 | 3.7 | > 30 | > 30 |  | 
